The values below come from US10144746B2 (GLOBAL BLOOD THERAPEUTICS, INC., priority 2015, dated 2018).

Structures are written as SMILES.

Human plasma kallikrein, sequence (P03952 391-638): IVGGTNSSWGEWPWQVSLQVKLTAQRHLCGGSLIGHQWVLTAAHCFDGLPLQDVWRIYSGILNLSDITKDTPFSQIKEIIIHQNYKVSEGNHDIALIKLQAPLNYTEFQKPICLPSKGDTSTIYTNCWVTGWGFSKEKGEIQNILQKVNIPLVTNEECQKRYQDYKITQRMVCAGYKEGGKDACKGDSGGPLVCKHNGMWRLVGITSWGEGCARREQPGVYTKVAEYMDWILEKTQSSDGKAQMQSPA
Human plasma kallikrein, sequence (P03952 20-390 partner): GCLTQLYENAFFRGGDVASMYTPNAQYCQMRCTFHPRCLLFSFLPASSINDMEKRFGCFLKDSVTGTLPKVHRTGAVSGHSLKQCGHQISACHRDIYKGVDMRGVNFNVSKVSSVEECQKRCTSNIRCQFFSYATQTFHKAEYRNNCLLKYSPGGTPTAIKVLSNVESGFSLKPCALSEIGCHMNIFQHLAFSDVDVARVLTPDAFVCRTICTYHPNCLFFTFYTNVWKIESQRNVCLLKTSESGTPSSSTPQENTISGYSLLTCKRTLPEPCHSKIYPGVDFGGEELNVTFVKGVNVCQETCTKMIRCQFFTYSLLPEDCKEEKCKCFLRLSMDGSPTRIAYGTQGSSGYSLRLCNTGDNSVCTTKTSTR

This assay addresses Human plasma kallikrein (Homo sapiens (Human), UniProt P03952). Description: In vitro plasma kallikrein inhibition assay (chromogenic substrate D-Pro-Phe-Arg-pNa, absorbance at 405 nm, IC50 determination). It counts as biochemical. The settings on record: read-out: KLKB1 pIC50 (converted). The method, then: In Vitro Plasma Kallikrein Inhibition Assay
The chromogenic substrate D-Pro-Phe-Arg-pNa, 2HCl (BIOPHEN CS-31(02) from Hyphen BioMed, Neuville-Sur-oise, France) was dissolved in 5 mL deionized water and stored at 4° C. […] All other chemicals were of analytical grade.
A stock solution of 7 μM in 50% glycerol was stored at −20° C.
Enzyme reactions were conducted in “assay buffer” comprised of 20 mM HEPES at pH 7.4, 150 mM NaCl, 0.1% PEG-8000 and 0.01% Triton X-100.
Both enzyme and substrate were diluted in assay buffer.
Plate measurements were conducted using a SPECTROStar Nano reader (BMG Labtech, San Francisco, Calif., USA). […] We used discrete wavelength, precise, kinetic reads of 15 cycles with a 60 sec cycle time.
Determination of IC50 values
The test compound was dissolved in 100% DMSO. The compounds were serially diluted in DMSO in a 7 point dose response. For the assays, 66.5 μL of protease solution (protease in assay buffer) was added per well followed by the addition of 8.5 μL of compound in 100% DMSO. […] After 30 min. incubation at room temperature on an orbital shaker, the reactions were started by the addition of 10 μL substrate solution (in assay buffer, final assay concentration was 600 uM). After the addition of the substrate solution the final DMSO concentration was 10%. The plate was placed again on the shaker for 5 sec, spun at 2000 rpm for 5 sec and read on the spectrophotometer. […] The IC50 value was calculated from the plot of rate vs. inhibitor concentration by a 4 parameter logistic equation: y=A+((B−A)/([…]))
where y is the rate at the inhibitor concentration, x. A is the minimum y value at the highest inhibitor concentration and B is the y value in the absence of inhibitor, C is the IC50 value and D is the slope factor. The curve fitting was conducted with the non-linear regression routine of the analysis software XLfit (IDBS, version 5.3.1).
On to `Cc1ccc(-c2ccc3c(c2)C2OC3c3ccc(C(=O)NCc4c(C)cc(N)nc4C)cc32)c(C#N)n1` (racemic) [Example 157, (±)-N-[(6-amino-2,4-dimethylpyridin-3-yl)-methyl]-12-(2-cyano-6-methylpyridin-3-yl)-15-oxatetracyclo [6.6.1.0^2,^7.0^9,1^4] pentadeca-2,4,6,9,11,13-hexaene-4-carboxamide], for which the IC50 was 22.9 nM.
Turning to `Cc1cc(N)nc(C)c1CNC(=O)c1ccc2c(c1)C1OC2c2ccc(-c3cccc(C(F)(F)F)c3C#N)cc21` (racemic) [Example 158, (±)-N-[(6-amino-2,4-dimethylpyridin-3-yl)-methyl]-12-[2-cyano-3-(trifluoromethyl)phenyl]-15-oxatetracyclo[6.6.1.0^2,^7.0^9,1^4] pentadeca-2,4,6,9,11,13-hexaene-4-carboxamide], the IC50 is 112 nM.
Take `Cc1cccc(Oc2ccc3c(c2)C2OC3c3ccc(C(=O)NCc4c(C)cc(N)nc4C)cc32)c1` (racemic) [Example 159, (±)-N-[(6-amino-2,4-dimethylpyridin-3-yl)-methyl]-12-(3-methylphenoxy)-15-oxatetracyclo[6.6.1.0^2,^7.0^9,1^4] pentadeca-2,4,6,9,11,13-hexaene-4-carboxamide]: the IC50 is 1860 nM.
For the compound `Cc1c(CNC(=O)c2ccc3c(c2)C2OC3c3ccc(Cn4cccn4)cc32)c(F)cc2c1CNC2` (racemic) [Example 160, (±)-N-[(6-fluoro-4-methyl-2,3-dihydro-1H-isoindol-5-yl)methyl]-12-[(1H-pyrazol-1-yl)methyl]-15-oxatetracyclo [6.6.1.0^2,^7.0^9,1^4]-pentadeca-2,4,6,9,11,13-hexaene-4-carboxamide], the IC50 is 120 nM.
With `Cc1cc2c(c(C)c1CNC(=O)c1ccc3c(c1)C1OC3c3ccc(Cn4cccn4)cc31)CNC2` (racemic) [Example 161, (±)-N-[(4,6-dimethyl-2,3-dihydro-1H-isoindol-5-yl)methyl]-12-[(1H-pyrazol-1-yl)methyl]-15-oxatetracyclo[6.6.1.0^2,^7.0^9,1^4]-pentadeca-2,4,6,9,11,13-hexaene-4-carboxamide], the IC50 was 1290 nM.
Regarding `Cc1cnn(Cc2ccc3c(c2)C2OC3c3ccc(C(=O)NCc4c(C)cc5c(c4C)CNC5)cc32)c1` (racemic) [Example 162, (±)-N-[(4,6-dimethyl-2,3-dihydro-1H-isoindol-5-yl)methyl]-12-[(4-methyl-1H-pyrazol-1-yl)methyl]-15-oxatetracyclo [6.6.1.0^2,^7.0^9,1^4]-pentadeca-2,4,6,9,11,13-hexaene-4-carboxamide], the IC50 was 72.4 nM.
For the compound `Cc1cc(CNC(=O)c2ccc3c(c2)C2OC3c3ccc(-c4ccc(F)cc4F)cc32)c(C)nc1N` (racemic) [Example 166, (±)-N-[(6-amino-2,5-dimethylpyridin-3-yl)-methyl]-12-(2,4-difluorophenyl)-15-oxatetracyclo[6.6.1.0^2,^7.0^9,1^4] pentadeca-2,4,6,9,11,13-hexaene-4-carboxamide], the IC50 is 6760 nM.
As for `COc1ccncc1-c1ccc2c(c1)C1OC2c2ccc(C(=O)NCc3c(C)cc(N)nc3C)cc21` (racemic) [Example 167, (±)-N-[(6-amino-2,4-dimethylpyridin-3-yl)-methyl]-12-(4-methoxypyridin-3-yl)-15-oxatetracyclo[6.6.1.0^2,^7.0^9,1^4] pentadeca-2,4,6,9,11,13-hexaene-4-carboxamide], the IC50 was 115 nM.
Then `Nc1cc(CNC(=O)c2ccc3c(c2)C2OC3c3ccc(-c4ccc(F)cc4F)cc32)ccn1` (racemic) [Example 168, (±)-N-[(2-aminopyridin-4-yl)methyl]-12-(2,4-difluorophenyl)-15-oxatetracyclo[6.6.1.0^2,^7.0^9,1^4]-pentadeca-2,4,6,9,11,13-hexaene-4-carboxamide], with 20000 nM; and `Cc1cc(N)nc(C)c1CNC(=O)c1ccc2c(c1)C1OC2c2ccc(-c3cc(F)c(F)cc3F)cc21` (racemic) [Example 169, (±)-N-[(6-amino-2,4-dimethylpyridin-3-yl)-methyl]-12-(2,4,5-trifluorophenyl)-15-oxatetra-cyclo [6.6.1.0^2,^7.0^9,1^4]pentadeca-2,4,6,9,11,13-hexaene-4-carboxamide], with 34.7 nM.
Take `CCCc1cc(N)nc(C)c1CNC(=O)c1ccc2c(c1)C1OC2c2ccc(-c3ccc(F)cc3F)cc21` (racemic) [Example 172, (±)-N-[(6-amino-2-methyl-4-propylpyridin-3-yl)methyl]-12 (2,4-difluorophenyl)-15-oxatetracyclo[6.6.1.0^2,^7.0^9,1^4] pentadeca-2,4,6,9,11,13-hexaene-4-carboxamide]: the IC50 is 10 nM.
For `Cc1nc(N)cc(C(C)C)c1CNC(=O)c1ccc2c(c1)C1OC2c2ccc(-c3ccc(F)cc3F)cc21` (racemic) [Example 173, (±)-N-{[6-amino-2-methyl-4-(propan-2-yl)pyridin-3-yl]methyl}-12-(2,4-difluorophenyl)-15-oxatetra-cyclo[6.6.1.0^2,^7.0^9,1^4]pentadeca-2,4,6,9,11,13-hexaene-4-carboxamide], the IC50 was 3.02 nM.
For `Cc1nc(N)cc(C2CC2)c1CNC(=O)c1ccc2c(c1)C1OC2c2ccc(-c3ccc(F)cc3F)cc21` (racemic) [Example 180, (±)-N-[(6-amino-4-cyclopropyl-2-methylpyridin-3-yl)methyl]-12-(2,4-difluorophenyl)-15-oxatetracyclo[6.6.1.0^2,^7.0^9,1^4] pentadeca-2,4,6,9,11,13-hexaene-4-carboxamide], the IC50 is 11 nM.
Consider `Cc1cc(N)nc(C)c1CNC(=O)c1ccc2c(c1)C1OC2c2ccc(C(=O)c3ccccc3)cc21` (racemic) [Example 188, (±)-N-[(6-amino-2,4-dimethylpyridin-3-yl)methyl]-12-benzoyl-15-oxatetracyclo-[6.6.1.0^2,^7.0^9,1^4]pentadeca-2,4,6,9,11,13-hexaene-4-carboxamide], for which the IC50 is 10 nM.
Turning to `N=C(N)c1ccc(CNC(=O)c2ccc3c(c2)C2OC3c3ccc(-c4ccccc4)cc32)cc1` (racemic) [Example 189, (±)-N-[(4-carbamimidoylphenyl)methyl]-12-phenyl-15-oxatetracyclo[6.6.1.0^2,^7.0^9,1^4]-pentadeca-2,4,6,9,11,13-hexaene-4-carboxamide], the IC50 was 4.57 nM.
Then `CN(C)C(=NC(=N)c1ccc(CNC(=O)c2ccc3c(c2)C2OC3c3ccc(-c4ccccc4)cc32)cc1)N(C)C` (racemic) [Example 190, (±)-N-{[4-({[bis(dimethylamino)methylidene]-amino}methanimidoyl)phenyl]methyl}-12-phenyl-15-oxatetracyclo[6.6.1.0^2,^7.0^9,1^4] pentadeca-2,4,6,9,11,13-hexaene-4-carboxamide], with 129 nM.
Take `N/C(=N\O)c1ccc(CNC(=O)c2ccc3c(c2)C2OC3c3ccc(-c4ccc(F)cc4F)cc32)cc1F` (racemic) [Example 197, (±)-12-(2,4-difluorophenyl)-N-({3-fluoro-4-[N′-hydroxycarbamimidoyl]phenyl}methyl)-15-oxatetracyclo[6.6.1.0^2,^7.0^9,1^4] pentadeca-2,4,6,9,11,13-hexaene-4-carboxamide]: the IC50 is 100000 nM.
Then `N=C(N)c1ccc(CNC(=O)c2ccc3c(c2)C2OC3c3ccc(-c4ccc(F)cc4F)cc32)cc1F` (racemic) [Example 198, (±)-N-[(4-carbamimidoyl-3-fluorophenyl)methyl]-12-(2,4-difluorophenyl)-15-oxatetracyclo-[6.6.1.0^2,^7.0^9,1^4]pentadeca-2,4,6,9,11,13-hexaene-4-carboxamide], with 20.9 nM; and `CC(=O)N1C2c3ccc(C(=O)NCc4c(C)cc(N)nc4C)cc3C1c1cc(-c3ccc(F)cc3F)ccc12` (racemic) [Example 209, (±)-15-acetyl-N-[(6-amino-2,4-dimethylpyridin-3-yl)methyl]-12-(2,4-difluorophenyl)-15-azatetracyclo[6.6.1.0^2,^7.0^9,1^4] pentadeca-2,4,6,9,11,13-hexaene-4-carboxamide and (±)-15-acetyl-N-[(6-amino-2,4-dimethylpyridin-3-yl)methyl]-11-(2,4-difluorophenyl)-15-azatetracyclo[6.6.1.0^2,^7.0^9,1^4] pentadeca-2,4,6,9,11,13-hexaene-4-carboxamide], with 3470 nM; and `CCc1cc2c(cc1CC)C1OC2c2ccc(C(=O)NCc3c(C)cc(N)nc3C)cc21` (racemic) [Example 303, (±)-N-[(6-amino-2,4-dimethyl-pyridin-3-yl)methyl]-11,12-diethyl-15-oxatetracyclo [6.6.1.0^2,^7.0^9,1^4]pentadeca-2,4,6,9(14),10,12-hexaene-4-carboxamide], with 209 nM.
